The source of these data is publication PMC12408761, “Impact of physical activity on ethoxy- and propoxypropanol human toxicokinetics in vivo” (Archives of Toxicology, 2025).

On the set-up of series [1]: method as in Groeseneken et al. [1986], [1987]. To be noted: humans; ref Groeseneken et al. [1986], [1987]; cited from earlier work.
A short description of series [2]: Controlled human inhalation exposure (4 h in exposure chamber, at rest or with moderate physical activity): toxicokinetics in blood, urine and exhaled breath. Type of series: in vivo. To be noted: for Time at which Cmax was reached (Tmax): time after start of exposure; for average Cmax in exhaled breath: for a same concentration of exposure; for Time at which Cmax was reached: urine and exhaled breath; for Increase of urinary absorption rate with physical activity versus rest: first 2 h of exposure. The protocol:
All exposure sessions were performed under controlled conditions at the Department of Occupational and Environmental Health, Center for Primary Care and Public Health (Unisanté), University of Lausanne, in Switzerland. PGEE or PGPE air concentrations were generated in a 12 m^3 exposure chamber (Guillemin [1975]) and monitored electronically (Lab VIEW software, National Instruments Corporation, Texas, USA) with a portable infrared spectroscopy gas analyzer for ambient air analysis (GASMET™ analyzer DX-4040 Gasmet Oy, Helsinki technologies, Finland) (Devanthery et al. [2003]; Tomicic et al. [2011]). During each exposure session, the participant spent 4 h inside the exposure chamber, and then 2 h outside in a solvent-free area. Each participant took part in four different exposure sessions comprising four different experimental conditions. Three sessions were performed at rest at either 25, 30, and 35 ppm of PGEE or 15, 20, and 25 ppm of PGPE. The fourth session was performed with moderate physical activity at 35 ppm of PGEE or 25 ppm of PGPE (Fig. 1).
The air concentrations were below the existing OEL for PGEE, i.e., 50 ppm. Given the absence of an OEL for PGPE, the chosen concentrations were previously tested to ensure odor tolerance for participants. The participants performed the physical activity at 1.5 W/kg on an ergonomic bicycle (Corival, Lode B.V., Groningen, The Netherlands) for 30 min twice during the same exposure session: the first without solvent exposure and the second with PGEE or PGPE. The physical activity design was adapted after discussion with sports science researchers from the University of Lausanne. A minimum of 48 h between two exposure sessions was determined to avoid possible cumulative exposure (Borgatta et al. [2022]). Blood, urine, and exhaled breath samples were collected before, during, and after all exposure sessions. The timing of sample collection was based on previous studies and protocol testing.
The blood samples were collected with an intravenous catheter inserted in the participant’s forearm by a research nurse into glass tubes (Vacutainers® NH Heparine Sodium, Becton Dickinson AG, Basel, Switzerland). A first blood sample was collected before the exposure session in a solvent-free area and used as baseline value. The timing following the first blood sample was 30, 120, 180, 240, 255, 300, and 360 min after the exposure to PGE started. The last blood sample was collected 24 h post-exposure. The blood samples were kept in the dark at 4 °C until analysis.
The participants were asked to provide a urine sample before the exposure session (solvent-free area, baseline) and then, every 2 h over 6 h. The participants continued to collect their urine (ad lib) samples at home for additional 24 h and bring them back in a cooler with cooling elements the day after the exposure session. They provided urine collection date, time, and total urinary volume. All urine samples were stored in polypropylene cups in the dark at 4 °C (Borgatta et al. [2021]). The cold storage is important to avoid any loss of substance as glycol ethers are volatile organic compounds.
The exhaled breath samples were collected using a non-invasive simple-to-use device for biological exposure monitoring of volatile organic compounds (BioVOC-2 Breath Sampler, Brechbühler, Schlieren, Switzerland). The last portion of expired breath (129 mL) was collected on thermal desorption (TD) tubes (Tenax® TA, Camsco, Böckten, Switzerland) from each participant. A first exhaled breath sample was collected before the exposure session in a solvent-free area (baseline). The timing following the first exhaled breath sample was 120, 240, 255, 260, 265, 270, 275 and 360 min after exposure had started and a last one 24 h post exposure. Exhaled breath samples were analyzed immediately after collection. […]

Where [3] appears, read: blood, at rest, 4 h inhalation, geometric mean ± SD.
Setting [4] is: blood, physical activity, 35 ppm PGEE or 25 ppm PGPE, geometric mean ± SD.
Where [5] appears, read: human, inhaled or intranasal, blood, at rest, 4 h inhalation (PGEE 25-35 ppm, PGPE 15-25 ppm), geometric mean ± SD.
[6] abbreviates: human, inhaled or intranasal, blood, at rest, 4 h inhalation, geometric mean ± SD, read-out: Cmax.
The mark [7] stands for this setting: human, inhaled or intranasal, urine, at rest, 4 h inhalation (PGEE 25-35 ppm, PGPE 15-25 ppm), geometric mean ± SD.
[8] abbreviates: human, inhaled or intranasal, urine, at rest, 4 h inhalation, geometric mean ± SD, read-out: Cmax.
Setting [9] is: human, inhaled, blood, at rest, for a same concentration of exposure (25 ppm), read-out: average Cmax in blood.
Where [10] appears, read: human, inhaled, blood, at rest, read-out: half-life in blood.
[11] abbreviates: human, inhaled, blood, physical activity (30 min, 1.5 W/kg), 35 ppm PGEE or 25 ppm PGPE, geometric mean ± SD.
The mark [12] stands for this setting: human, inhaled, blood, physical activity, 35 ppm PGEE or 25 ppm PGPE, geometric mean ± SD, read-out: Cmax.
Setting [13] is: human, inhaled, exhaled breath, all exposure conditions, read-out: Half-life (converted).
The mark [14] stands for this setting: human, inhaled, urine, physical activity (30 min, 1.5 W/kg), 35 ppm PGEE or 25 ppm PGPE, geometric mean ± SD.
The mark [15] stands for this setting: human, inhaled, urine, physical activity, 35 ppm PGEE or 25 ppm PGPE, geometric mean ± SD, read-out: Cmax.
[16] abbreviates: urine, at rest, 4 h inhalation, geometric mean ± SD.
[17] abbreviates: urine, physical activity, 35 ppm PGEE or 25 ppm PGPE, geometric mean ± SD.

What is called AUC is concentration integrated over time. Low values mean less exposure, high ones more exposure. By Cmax is commonly meant the highest concentration seen after dosing. One may read the half-life as the time in which the quantity being followed falls by half.

Like-named read-outs stand apart in the source and are kept apart here.

Consider `CCOCCO` [EGEE, ethylene glycol ethyl ether], for which, in series [1], the “exhalation as share of the total uptake” value was “less than 0.4%”.
With `CCOCCOC(C)=O` [EGEEAc], the “exhalation as share of the total uptake” value in series [1] is on record as “less than 0.4%”.
For the compound `CCOCC(C)O` (centres unmarked) [PGEE, propylene glycol ethyl ether], the “Absorption (absorption rate)” value in series [2] (setting [3]) came to 0.013 ± 0 µg/mL/h*ppm; in series [2] (setting [4]), 0.038 ± 0.004 µg/mL/h*ppm; in series [2] (setting [16]) it was 0.010 ± 0.002 µg/mL/h*ppm; in series [2] (setting [17]), 0.014 ± 0.003 µg/mL/h*ppm. Besides, in series [2] (blood, at rest), the “Time at which Cmax was reached (Tmax)” value is 240 min. In addition, the “Blood concentration following PGEE exposure compared to PGPE” value in series [2] (blood, same concentration of exposure (25 ppm)) is 1.3 fold. In series [2] (exhaled breath), the “Share of total blood uptake quantified in exhaled breath (AUC exhaled breath / AUC blood)” value was “less than 0.5%”. In addition, the “average Cmax in exhaled breath” value in series [2] (exhaled breath, at rest) stood at 2.81 ± 0.76 ppm. The AUC in series [2] (setting [5]) was 7320 ng·h/mL; in series [2] (setting [7]), 5050 ng·h/mL; in series [2] (setting [11]), 16600 ng·h/mL; in series [2] (setting [14]), 8820 ng·h/mL. For the same compound, the Cmax in series [2] (setting [6]) worked out at 1070 ± 300 ng/mL; in series [2] (setting [8]), 1070 ± 210 ng/mL; in series [2] (setting [9]) it was 810 ± 80 ng/mL; in series [2] (setting [12]) it was 2760 ± 260 ng/mL; in series [2] (setting [15]), 1810 ± 470 ng/mL. Moreover, the half-life in series [2] (setting [10]) is 60 min; in series [2] (setting [13]), 2.88 min; in series [2] (human, inhaled, urine, all exposure conditions, read-out: Half-life (converted)), 78 min. The “Time at which Cmax was reached” value in series [2] (all conditions) was “at the end of exposure”. Further, in series [2] (urine), the “Increase of urinary absorption rate with physical activity versus rest” value was found to be 1.5 times.
For `CCCOCC(C)O` (centres unmarked) [PGPE, propylene glycol propyl ether], the “Absorption (absorption rate)” value in series [2] (setting [3]) is given as 0.011 ± 0 µg/mL/h*ppm; in series [2] (setting [4]), 0.024 ± 0.002 µg/mL/h*ppm; in series [2] (setting [16]), 0.007 ± 0.0017 µg/mL/h*ppm; in series [2] (setting [17]) it was 0.0087 ± 0.0008 µg/mL/h*ppm. Also, the “Time at which Cmax was reached (Tmax)” value in series [2] (blood, at rest) worked out at 180 min. Also, in series [2] (exhaled breath), the “Share of total blood uptake quantified in exhaled breath (AUC exhaled breath / AUC blood)” value worked out at 1.1%. Moreover, in series [2] (exhaled breath, at rest), the “average Cmax in exhaled breath” value is recorded as 2.25 ± 0.66 ppm. In addition, the AUC in series [2] (setting [5]) is 2650 ng·h/mL; in series [2] (setting [7]) it was 1910 ng·h/mL; in series [2] (setting [11]), 5130 ng·h/mL; in series [2] (setting [14]), 3090 ng·h/mL. Further, the Cmax came to 500 ± 130 ng/mL in series [2] (setting [6]); 450 ± 110 ng/mL in series [2] (setting [8]); 650 ± 90 ng/mL in series [2] (setting [9]); 1230 ± 90 ng/mL in series [2] (setting [12]); 710 ± 140 ng/mL in series [2] (setting [15]). Besides, the half-life is 54 min in series [2] (setting [10]); 2.28 min in series [2] (setting [13]); 54 min in series [2] (human, inhaled, urine, all conditions, read-out: urinary half-life); 54 min in series [2] (urine, all exposure conditions). Further, the “Share of total blood uptake quantified in urine (AUC urine / AUC blood)” value in series [2] (urine) amounted to 69.5%. The “Time at which Cmax was reached” value in series [2] (all conditions) was “at the end of exposure”. Further, the “Increase of urinary absorption rate with physical activity versus rest” value in series [2] (urine) was “did not differ significantly”.
